US5025033A, “Alkylene diamines” (Takeda Chemical Industries, Ltd., priority 1988, dated 1991)
Where a name gives a salt, the structure may show the parent alone. Read-outs that look alike come from different tables or passages of the source.

Columns and labels:
[1] = biological target: T1, Acetylcholinesterase (Rattus norvegicus, UniProt P37136); assay: Acetylcholinesterase inhibiting activity using (acetyl-[3H])-acetylcholine, S1 fraction of rat cerebral cortex homogenate; type: biochemical, male Wistar rat
T1 construct: the S1 fraction of a male Wistar rat cerebral cortex homogenate was used as a cholinesterase source; from tissue; host or cells: male Wistar rat cerebral cortex homogenate, S1 fraction
T1 sequence (P37136 32-614): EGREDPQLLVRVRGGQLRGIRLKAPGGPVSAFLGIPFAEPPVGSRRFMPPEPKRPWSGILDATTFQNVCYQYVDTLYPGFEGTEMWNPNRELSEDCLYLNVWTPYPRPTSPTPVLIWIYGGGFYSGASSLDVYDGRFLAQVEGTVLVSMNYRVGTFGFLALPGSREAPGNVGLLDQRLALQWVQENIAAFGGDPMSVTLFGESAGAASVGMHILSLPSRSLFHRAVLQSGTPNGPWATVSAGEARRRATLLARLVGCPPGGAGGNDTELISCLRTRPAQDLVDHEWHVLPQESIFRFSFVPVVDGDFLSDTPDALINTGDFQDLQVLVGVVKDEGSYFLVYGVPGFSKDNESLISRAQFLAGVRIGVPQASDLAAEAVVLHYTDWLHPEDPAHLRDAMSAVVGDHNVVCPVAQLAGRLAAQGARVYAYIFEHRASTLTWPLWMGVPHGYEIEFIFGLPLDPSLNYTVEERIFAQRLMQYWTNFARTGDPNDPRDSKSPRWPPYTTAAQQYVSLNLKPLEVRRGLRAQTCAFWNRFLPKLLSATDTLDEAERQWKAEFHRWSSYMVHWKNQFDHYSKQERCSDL
Experimental: The compounds according to the invention were examined for cholinesterase inhibiting activity using (acetyl-[^3 H])-acetylcholine. Thus, the S1 fraction of a male Wistar rat cerebral cortex homogenate was used as a cholinesterase source, and (acetyl-[^3 H])-acetylcholine (as substrate) and each test compound according to the invention were added and, after 30 minutes of incubation, the reaction was terminated. A toluene type scintillator was added, and the mixture was shaken, whereby the reaction product [^3 H]-acetic acid was transferred to the toluene layer. The cholinesterase activity was determined by counting said [^3 H]-acetic acid with a liquid scintillation counter.
The cholinesterase inhibiting activity of each test compound was expressed in terms of 50% inhibitory concentration (IC50).

[2] = tested on: CO2-induced ammesia in mice; assay: Nootropic action: effect on CO2-induced amnesia in mice (passive avoidance response); type: in vivo, mice (male ICR); conditions: i.p., 30 min before the test, saline = 100, ** p < 0.01
Experimental: Effect of the compounds (I) and (II) on impairment of passive avoidance response, induced by exposing mice to 100% CO2 gas, was evaluated. Male ICR mice (Japan Clea) aged 5 weeks were used. The experimental apparatus consisted of two compartments, and one illuminated chamber (9×9×25 cm) was connected to dark chamber (25×25×30 cm) with a guillotine door. Each mouse was placed in the illuminated compartment and then allowed to enter the dark one. When the mouse entered the dark chamber, the door was closed and AC 0.5 mA footshock was applied to the floor grid of the dark chamber. The mouse can memorize the experience receiving the uncomfortable stimulus for a few weeks. Next, the consolidation processes of memory were disturbed by an experimental manipulation: Each mouse was placed under the hypoxic condition by being placed into a 4l desiccator filled with 100% CO2 gas, immediately after receiving the footshock in the dark chamber. When his respiratory function was stopped, the mouse was taken out from the desiccator and given artificial respiration till recovering spontaneous respiration. This procedure disturbed the consolidation of the memory (experience of footshock). On the next day, a retention test was performed whether the mouse memorizes the footshock or not. In the test, the mouse was again placed in the illuminated compartment and the latency to enter the dark compartment was measured.
The mice subjected to hypoxia entered the dark compartment with short latency, 10-20 sec. […] The ameliorating effect of compounds on the amnesia induced by hypoxia was evaluated by the latency time, and was expressed as the percent change of the mean time of the vehicle-treated control group (Table 5.). The compounds were suspended in 5% arabic gum solution, and administered intraperitoneally (i.p.) 30 min. before the test.

[3] = tested on: mice; assay: General symptoms in mice (salivation, lachrymation, hypothermia); type: in vivo; parameters: key: +++: marked; ++: moderate; +: mild; non-detected; conditions: 100 mg/kg orally; observed for 4 hours
Experimental: Four mice were used for each group. Mice were placed in stainless steel cages (13×18×25 cm) and after a 1-hr habituation period the compounds were administered. […] Peripheral and central effects of the compounds were estimated with the incidences of salivation and lachrymation, and a grade of hypothermia, respectively.
The compounds which were soluble in saline were dissolved in saline and the others were suspended in 5% arabic gum solution. Each compound was administered orally (100 mg/kg).
Scorings of the symptoms were made as follows.

[4] = LD50 value, oral, mice; conditions: mouse, in vivo, p.o., ten mice per group
From the text: LD50 value Ten mice were used for each group. LD50 value was estimated with the dose (mg/kg, p.o.) which induced death in 50% of mice.

[5] = rat cerebral cortex homogenate S1 fraction, 30 minutes of incubation, read-out: Acetylcholinesterase inhibiting activity IC50

Row | Structure (SMILES) | IC50 [1, 5] [nM] | other results
1 | CCN(CCCCCN1C(=O)c2ccc([N+](=O)[O-])cc2C1=O)Cc1ccccc1 [Compound 2-8] | 150 | Anti-amnesia (latency, percent change of the mean time of the vehicle-treated control group) ([2]; 3 mg/kg): 326%; Hypothermia [3]: +; Lachrymation [3]: ++; Salivation [3]: +; LD50 [4]: 300 mg/kg
2 | CCN(CCCCCN1C(=O)c2ccc(NC(C)=O)cc2C1=O)Cc1ccccc1 [Compound 11-1] |  | IC50 [1]: 320 nM; Anti-amnesia (latency, percent change of the mean time of the vehicle-treated control group) ([2]; 1 mg/kg): 455%; Hypothermia [3]: +; Lachrymation [3]: ++; Salivation [3]: -; LD50 [4]: > 300 mg/kg
3 | CC(=O)N(CCCCN(C)Cc1ccccc1)C(=O)/C=C/c1ccc([N+](=O)[O-])cc1 [Compound 15, (E)-N-Acetyl-N-[4-(N-methyl-N-benzyl)aminobutyl]-3-(4-nitrophenyl)-2-propenamide hydrochloride] | 19000 | 
4 | CCN(CCCCN(C(C)=O)C(=O)/C=C/c1ccc([N+](=O)[O-])cc1)Cc1ccccc1 [Compound 16-1] | 7300 | 
5 | CCN(CCCCCN(C(C)=O)C(=O)/C=C/c1ccc([N+](=O)[O-])cc1)Cc1ccccc1 [Compound 16-2] | 560 | 
6 | CCN(CCCCCCN(C(C)=O)C(=O)/C=C/c1ccc([N+](=O)[O-])cc1)Cc1ccccc1 [Compound 16-3] | 3000 | 
7 | CCN(CCCCCN(C(C)=O)C(=O)/C=C/c1cccc([N+](=O)[O-])c1)Cc1ccccc1 [Compound 16-4] | 530 | 
8 | CCN(CCCCCN(C(C)=O)C(=O)/C=C/c1ccc(Cl)cc1)Cc1ccccc1 [Compound 16-5] | 2200 | 
9 | CCN(CCCCCN(C(C)=O)C(=O)/C=C/c1ccc(C#N)cc1)Cc1ccccc1 [Compound 16-6] | 460 | 
10 | CCN(CCCCCN(C(C)=O)C(=O)/C=C/c1cccc(OC)c1)Cc1ccccc1 [Compound 16-7] | 5800 | 
11 | CCN(CCCCCN(C(C)=O)C(=O)/C=C/c1ccc(S(C)(=O)=O)cc1)Cc1ccccc1 [Compound 16-8] | 170 | 
12 | CCN(CCCCCN(C(C)=O)C(=O)/C=C/c1ccc([N+](=O)[O-])c(O)c1)Cc1ccccc1 [Compound 16-9] | 350 | 
13 | CCN(CCCCCN(C(C)=O)C(=O)/C=C/c1ccc([N+](=O)[O-])c(OC(C)=O)c1)Cc1ccccc1 [Compound 16-10] | 280 | 
14 | CCN(CCCCCN(C(C)=O)C(=O)/C=C/c1ccc(Cl)c([N+](=O)[O-])c1)Cc1ccccc1 [Compound 16-11] | 410 | 
15 | CCOC(=O)c1ccc2c(c1)C(=O)N(CCCCCN(CC)Cc1ccccc1)C2=O [Compound 17, Ethyl 2-[5-(N-benzyl-N-ethyl)aminopentyl]-1,3(2H)-dioxo-1H-isoindole-5-carboxylate.hydrochloride] | 680 | 
16 | CCN(CCCCCNC(=O)/C=C/c1ccc(Cl)c([N+](=O)[O-])c1)Cc1ccccc1OC [Compound 18-1] | 220 | 
17 | CCN(CCCCCNC(=O)/C=C/c1ccc([N+](=O)[O-])cc1)Cc1ccccc1OC [Compound 18-2] | 290 | 
18 | CCN(CCCCCNC(=O)/C=C/c1ccc(S(C)(=O)=O)cc1)Cc1ccccc1OC [Compound 18-3] | 230 | 
19 | CCN(CCCCCNC(=O)/C=C/c1ccc(C#N)cc1)Cc1ccccc1OC [Compound 18-4] | 370 | 
20 | CCN(CCCCCNC(=O)/C=C/c1ccc(OC)c(OC)c1)Cc1ccccc1OC [Compound 18-5] | 430 | 
21 | CCC(=O)N(CCCCCN(CC)Cc1ccccc1)C(=O)/C=C/c1ccc([N+](=O)[O-])cc1 [Compound 19-1] | 4300 | 
22 | CCN(CCCCCNC(=O)/C=C/c1cccc(N)c1)Cc1ccccc1 [Compound 20-1] | 19000 | 
23 | CCN(CCCCCN(C(C)=O)C(=O)/C=C/c1cccc(N)c1)Cc1ccccc1 [Compound 20-2] | 2400 | 
24 | CCN(CCCCCNC(=O)/C=C/c1ccc(N)cc1)Cc1ccccc1 [Compound 20-3] | 10000 | 
25 | CCN(CCCCCN(C(C)=O)C(=O)/C=C/c1cccc(NC(C)=O)c1)Cc1ccccc1 [Compound 21-1] | 1800 | 
26 | CCN(CCCCCNC(=O)/C=C/c1ccc(NC(C)=O)cc1)Cc1ccccc1 [Compound 21-2] | 5700 | 
27 | CNC(=O)Oc1ccc2c(c1)[C@]1(C)CCN(C)[C@@H]1N2C [Physostigmine, physostigmine, reference compound] |  | Anti-amnesia (latency, percent change of the mean time of the vehicle-treated control group) ([2]; 0.3 mg/kg): 210%; LD50 [4]: 2.6 mg/kg
